Results taken from patent US20070105890A1, “Novel condensed imidazole derivative” (DAINIPPON SUMITOMO PHARMA CO., LTD, priority 2003, published 2007).
Structures can show the parent of a compound that is named as a salt.

molecular target: T1, DPP-IV enzyme (Homo sapiens, UniProt P27487); assay: In Vitro DPP-IV Inhibitory Effect Measurement Test (2), human serum; assay type: biochemical; settings: DPP-IV in human serum (diluted 10-fold); substrate Glycyl-L-Proline 4-Methyl-Coumaryl-7-Amide 100 μM; Table 2
T1 construct: Human serum containing DPP-IV enzyme was used in an experiment after being diluted with assay buffer; from tissue; host or cells: human serum
T1 sequence (P27487 39-766 limits assumed): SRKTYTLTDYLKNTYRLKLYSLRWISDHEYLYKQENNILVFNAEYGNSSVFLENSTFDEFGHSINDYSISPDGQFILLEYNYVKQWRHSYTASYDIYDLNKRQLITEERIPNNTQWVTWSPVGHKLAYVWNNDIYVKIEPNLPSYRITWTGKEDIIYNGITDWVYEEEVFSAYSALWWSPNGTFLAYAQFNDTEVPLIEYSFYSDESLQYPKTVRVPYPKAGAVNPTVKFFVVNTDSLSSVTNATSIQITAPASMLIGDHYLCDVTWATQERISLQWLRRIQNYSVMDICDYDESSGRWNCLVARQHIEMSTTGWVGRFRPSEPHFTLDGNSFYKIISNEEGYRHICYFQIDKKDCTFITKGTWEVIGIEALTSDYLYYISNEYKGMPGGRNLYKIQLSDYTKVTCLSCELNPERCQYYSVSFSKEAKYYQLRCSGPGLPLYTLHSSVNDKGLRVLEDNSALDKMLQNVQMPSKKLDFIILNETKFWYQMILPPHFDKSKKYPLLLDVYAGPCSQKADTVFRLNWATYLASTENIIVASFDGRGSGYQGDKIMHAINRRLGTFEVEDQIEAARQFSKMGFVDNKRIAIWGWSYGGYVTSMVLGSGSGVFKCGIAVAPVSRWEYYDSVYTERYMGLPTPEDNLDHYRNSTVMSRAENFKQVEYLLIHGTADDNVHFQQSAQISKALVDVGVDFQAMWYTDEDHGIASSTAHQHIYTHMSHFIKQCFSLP
Method: In Vitro DPP-IV Inhibitory Effect Measurement Test (2)
Human serum containing DPP-IV enzyme was used in an experiment after being diluted with assay buffer (25 mM Tris-HCl, 140 mM NaCl, 10 mM KCl, pH 7.9) (finally, diluted 10-fold). Each of solutions of each test compound having various concentrations was added to the diluted serum and the resulting mixture was incubated at room temperature. Then, a substrate (Glycyl-L-Proline 4-Methyl-Coumaryl-7-Amide, Peptide Laboratories Co., Ltd.) was added thereto to a final concentration of 100 μM and the reaction was carried out at room temperature.
(§1) Compounds of Examples were used in this test.

| Structure (SMILES) | IC50 |
| --- | --- |
| Cn1c(=O)c2c(nc(N3CCC[C@@H](N)C3)n2Cc2ccccc2Cl)c2c(C(=O)O)c(F)ccc21 [Example 97, 2-[(3R)-3-aminopiperidin-1-yl]-3-(2-chlorobenzyl)-8-fluoro-5-methyl-4-oxo-4,5-dihydro-3H-imidazo[4,5-c]quinoline-9-carboxylic acid hydrochloride] | 14 nM |
| N[C@@H]1CCCN(c2nc3c4cc(C(=O)O)ccc4[nH]c(=O)c3n2Cc2ccccc2Cl)C1 [Example 48, 2-{(3R)-3-Aminopiperidin-1-yl}-3-(2-chlorobenzyl)-4-oxo-4,5-dihydro-3H-imidazo[4,5-c]quinoline-8-carboxylic acid hydrochloride] | 45 nM |
| COC(=O)c1c2c(nn1Cc1ccc(OC)cc1)c1nc(N3CCC[C@@H](N)C3)n(Cc3ccccc3Cl)c1c(=O)n2C [Example 94, Methyl 7-[(3R)-3-aminopiperidin-1-yl]-6-(2-chlorobenzyl)-2-(4-methoxybenzyl)-4-methyl-5-oxo-2,4,5,6-tetrahydroimidazo[4,5-d]pyrazolo[4,3-b]pyridine-3-carboxylate hydrochloride] | 42 nM |

The remaining lines, values ahead:

| IC50 | Structure (SMILES) |
| --- | --- |
| 11 nM | Cn1c(=O)c2c(nc(N3CCC[C@@H](N)C3)n2Cc2ccccc2Cl)c2cc3c(cc21)C(=O)OC3 [Example 90, 2-[(3R)-3-Aminopiperidin-1-yl]-3-(2-chlorobenzyl)-5-methyl-5,9-dihydro-3H-furo[3,4-g]imidazo[4,5-c]quinoline-4,7-dione hydrochloride] |
| 12 nM | Cn1c(=O)c2c(nc(N3CCC[C@@H](N)C3)n2Cc2ccccc2Cl)c2csc(C(=O)O)c21 [Example 102, 2-[(3R)-3-Aminopiperidin-1-yl]-3-(2-chlorobenzyl)-5-methyl-4-oxo-4,5-dihydro-3H-imidazo[4,5-d]thieno[3,4-b]pyridine-6-carboxylic acid hydrochloride] |

molecular target: T2, DPP-IV enzyme (Bos taurus, UniProt P81425); assay: In Vitro DPP-IV Inhibitory Effect Measurement Test (1), bovine plasma; assay type: biochemical; settings: substrate Glycyl-L-Proline 4-Methyl-Coumaryl-7-Amide, Table 1
T2 construct: Bovine plasma containing DPP-IV enzyme was diluted with assay buffer; from tissue; host or cells: bovine plasma
T2 sequence (P81425 38-765 limits assumed): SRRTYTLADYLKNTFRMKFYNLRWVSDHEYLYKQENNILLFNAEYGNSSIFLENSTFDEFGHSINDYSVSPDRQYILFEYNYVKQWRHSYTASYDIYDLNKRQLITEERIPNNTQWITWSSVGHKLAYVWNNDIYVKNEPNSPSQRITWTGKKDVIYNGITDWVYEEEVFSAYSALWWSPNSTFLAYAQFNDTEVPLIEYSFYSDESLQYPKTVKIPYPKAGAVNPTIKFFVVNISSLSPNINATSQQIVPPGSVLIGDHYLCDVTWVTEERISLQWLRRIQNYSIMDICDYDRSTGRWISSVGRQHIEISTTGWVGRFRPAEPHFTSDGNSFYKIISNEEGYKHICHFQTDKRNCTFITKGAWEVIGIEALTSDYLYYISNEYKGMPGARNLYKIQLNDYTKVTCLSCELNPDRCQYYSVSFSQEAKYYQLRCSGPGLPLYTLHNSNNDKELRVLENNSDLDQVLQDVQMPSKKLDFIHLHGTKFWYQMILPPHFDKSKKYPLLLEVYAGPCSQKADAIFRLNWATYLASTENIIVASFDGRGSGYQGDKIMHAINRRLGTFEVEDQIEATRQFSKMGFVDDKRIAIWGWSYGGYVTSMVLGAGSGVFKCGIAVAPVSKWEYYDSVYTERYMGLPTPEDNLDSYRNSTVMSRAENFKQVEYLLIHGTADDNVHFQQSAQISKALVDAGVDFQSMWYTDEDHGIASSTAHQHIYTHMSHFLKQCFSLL
Method: In Vitro DPP-IV Inhibitory Effect Measurement Test (1)
Bovine plasma containing DPP-IV enzyme was diluted with assay buffer (25 mM Tris-HCl, 140 mM NaCl, 10 mM KCl, pH=7.9) and 50 μL of the dilution was added to a micro assay plate. After 1 μL of a solution of each compound was added, mixing was conducted, followed by incubation at room temperature. A substrate (Glycyl-L-Proline 4-Methyl-Coumaryl-7-Amide, Peptide Laboratories Co., Ltd.) was diluted to 0.2 mM with the assay buffer, and 50 μL of this solution was added and then stirred, followed by incubation at room temperature. Thereafter, the reaction was terminated by the addition of 100 μL of a 25% aqueous acetic acid solution. The intensity of fluorescence at an excitation wavelength of 360 nm and a measuring wavelength of 460 nm was measured by the use of a fluorescent plate reader. The difference in intensity of fluorescence between a background well in which the reaction had been terminated by previously adding a 25% aqueous acetic acid solution before the addition of the substrate solution and a control well to which no compound had been added was taken as 100%. The intensity of fluorescence of a well containing the compound was interpolated and the residual enzyme activity in the case of the addition of the compound was calculated as a relative value.
as §1

| Structure (SMILES) | IC50 |
| --- | --- |
| N[C@@H]1CCCN(c2nc3ccn(CC(=O)c4ccccc4)c(=O)c3n2Cc2ccccc2Cl)C1 [Example 7] | 1.4 nM |
| N[C@@H]1CCCN(c2nc3ccn(-c4cccc(F)c4)c(=O)c3n2Cc2ccccc2Cl)C1 [Example 30] | 203 nM |
| Cn1ccc2nc(N3CCC[C@@H](N)C3)n(Cc3ccccc3Cl)c2c1=O [Example 4, 2-[(3R)-3-Aminopiperidin-1-yl]-3-(2-chlorobenzyl)-5-methyl-3,5-dihydro-4H-imidazo[4,5-c]pyridin-4-one] | 68 nM |
| COc1cccc(CC(=O)c2cc3nc(N4CCC[C@@H](N)C4)n(Cc4ccccc4Cl)c3c(=O)n2C)c1 [Example 38] | 112 nM |

More lines, now with the values ahead:

| IC50 | Structure (SMILES) |
| --- | --- |
| 5 nM | N[C@@H]1CCCN(c2nc3cc(C(=O)O)[nH]c(=O)c3n2Cc2ccccc2Cl)C1 [Example 13] |
| 44 nM | Cn1ccc2nc(N3CCC[C@@H](N)C3)n(Cc3cc(F)ccc3Cl)c2c1=O [Example 11] |
| 11 nM | Cn1c(C#N)cc2nc(N3CCC[C@@H](N)C3)n(Cc3ccccc3Cl)c2c1=O [Example 2, 2-[(3R)-3-Aminopiperidin-1-yl]-3-(2-chlorobenzyl)-5-methyl-4-oxo-4,5-dihydro-3H-imidazo[4,5-c]pyridine-6-carbonitrile hydrochloride] |
